Laboratory results: patent US11673910B2, “Macrolides with modified desosamine sugars and uses thereof” (Zikani Therapeutics, Inc., priority 2017, dated 2023)
≈ marks a conversion by molar mass, not a printed value.

Experiments:
Type in all cases: cell-based
[1] = test system: E. coli strain MP-4; experiment: Broth dilution MIC determination (CLSI) against E. coli strain MP-4; settings: Escherichia coli, MP4
Method: (§1) Minimum inhibitory concentrations (MICs) for macrolides described herein were determined for E. coli strain MP-4, K. pneumoniae strain MP-548, P. aeruginosa strain MP-3, A. baumannii strain MP-15, and S. aureus strain MP-12 using similar test procedures as published in US Pat. Pub. No. 2017/0305953. MIC data is represented as “+++” for values less than or equal to 4 mg/L, “++” for values of greater than or equal to 8 mg/L and less than 32 mg/L, and “+” for values of 32 mg/L or greater. ND indicates no data for a particular compound. CLSI standard procedures for broth dilution MIC determination were used.

[2] = test system: K. pneumoniae strain MP-548; experiment: Broth dilution MIC determination (CLSI) against K. pneumoniae strain MP-548; settings: Klebsiella pneumoniae, MP548
Method: as §1

[3] = test system: P. aeruginosa strain MP-3; experiment: Broth dilution MIC determination (CLSI) against P. aeruginosa strain MP-3; settings: Pseudomonas aeruginosa, MP3
Method: as §1

[4] = test system: A. baumannii strain MP-15; experiment: Broth dilution MIC determination (CLSI) against A. baumannii strain MP-15; settings: Acinetobacter baumannii, MP15
Method: as §1

[5] = test system: S. aureus strain MP-12; experiment: Broth dilution MIC determination (CLSI) against S. aureus strain MP-12; settings: for MIC: Staphylococcus aureus, MP12, strain MP-12; for MIC against S. aureus (MP-12): strain MP-12
Method: as §1

Molecule | MIC [1] [µg/mL] | MIC [2] [µg/mL] | MIC [3] [µg/mL] | MIC [4] [µg/mL] | MIC [5] [µg/mL] | MIC against S. aureus (MP-12) [5]
CC[C@H]1OC(=O)[C@]2(C)CCO[C@](C)(C[C@@H](C)CN[C@H](C)[C@H]3NC(=O)O[C@@]31C)[C@H](O[C@@H]1O[C@H](CN3CCCCC3)C[C@H](N(C)C)[C@H]1O)[C@@H](C)C2=O [Compound 198] | ≤ 4 | 8 to 32 (≈ 11.3 to 45.1 µM) | ≥ 32 | ≥ 32 | 8 to 32 (≈ 11.3 to 45.1 µM) | –
CC[C@H]1OC(=O)C(C)C(=O)[C@H](C)[C@@H](O[C@@H]2O[C@H](CNC3CCC3)CC(N(C)C)[C@H]2O)[C@](C)(OC)C[C@@H](C)CN(C)[C@H](C)[C@H]2NC(=O)O[C@@]21C (stereo partly shown) [Compound 163, 3-Descladinosyl-3-oxo-6-O-methyl-11,12-dideoxy-12,11-(oxycarbonylimino)-6′-cyclobutylamino Azithromycin] | ≤ 4 | ≤ 4 | ≥ 32 | ≥ 32 | ≥ 32 | –
CC[C@H]1OC(=O)C(C)C(=O)[C@H](C)[C@@H](OC2OC(C(O)CNC3CC3)CC(N(C)C)C2O)[C@](C)(OC)C[C@@H](C)CN[C@H](C)[C@H]2NC(=O)O[C@@]21C (stereo partly shown) [Compound 188, 3-Descladinosyl-3-oxo-6-O-methyl-8-oxo-N9a-desmethyl-11,12-dideoxy-12,11-(oxycarbonylimino)-6′-hydroxy-6′-cyclopropylaminomethyl Azithromycin] | ≥ 32 | ≥ 32 | ≥ 32 | ≥ 32 | ≥ 32 | –
CC[C@H]1OC(=O)C(C)C(=O)[C@H](C)[C@@H](O[C@@H]2OC(CNCc3ccc(C(C)(C)C)cc3)CC(N(C)C)C2O)[C@](C)(OC)C[C@@H](C)CN[C@H](C)[C@H]2NC(=O)O[C@@]21C (stereo partly shown) [Compound 37] | ≥ 32 | ≥ 32 | ≥ 32 | ≥ 32 | ≥ 32 | –
CC[C@H]1OC(=O)C(C)C(=O)[C@H](C)[C@@H](O[C@@H]2O[C@H](C(C)N)CC(N(C)C)[C@H]2O)[C@](C)(OC)C[C@@H](C)CN[C@H](C)[C@H]2NC(=O)O[C@@]21C (stereo partly shown) [Compound 181, 3-Desdadinosyl-3-oxo-6-O-methyl-N9a-desmethyl-11,12-dideoxy-12,11-(oxycarbonylimino)-6′-aminoethyl Azithromycin] | 8 to 32 (≈ 12.4 to 49.8 µM) | ≥ 32 | ≥ 32 | ≥ 32 | ≥ 32 | –
CC[C@H]1OC(=O)C(C)C(=O)[C@H](C)[C@@H](OC2OC(CNC34CC(C3)C4)CC(N(C)C)C2O)[C@](C)(OC)C[C@@H](C)CN[C@H](C)[C@H]2NC(=O)O[C@@]21C (stereo partly shown) [Compound 141, 3-Descladinosyl-3-oxo-6-O-methyl-N9a-desmethyl-11,12-dideoxy-12,11-(oxycarbonylimino)-6′-(bicyclo[1.1.1]pentanylamino) Azithromycin] | ≤ 4 | ≤ 4 | ≥ 32 | 8 to 32 (≈ 11.5 to 46 µM) | 8 to 32 (≈ 11.5 to 46 µM) | –
CC[C@H]1OC(=O)C(C)C(=O)[C@H](C)[C@@H](OC2OC(CNCCOC)CC(N(C)C)C2O)[C@](C)(OC)C[C@@H](C)CN[C@H](C)[C@H]2NC(=O)O[C@@]21C (stereo partly shown) [Compound 114, 3-Descladinosyl-3-oxo-6-O-methyl-N9a-desmethyl-11,12-dideoxy-12,11-(oxycarbonylimino)-6′-(2-methoxyamino) Azithromycin] | ≤ 4 | 8 to 32 (≈ 11.6 to 46.6 µM) | ≥ 32 | ≥ 32 | ≥ 32 | –
CC[C@H]1OC(=O)C(C)C(=O)[C@H](C)[C@@H](O[C@@H]2OC(CNCc3cccc(C#N)c3)CC(N(C)C)C2O)[C@](C)(OC)C[C@@H](C)CN[C@H](C)[C@H]2NC(=O)O[C@@]21C (stereo partly shown) [Compound 41] | ≤ 4 | ≥ 32 | ≥ 32 | ≥ 32 | ≥ 32 | –
CC[C@H]1OC(=O)C(C)C(=O)[C@H](C)[C@@H](OC2OC(CNCC(N)=O)CC(N(C)C)C2O)[C@](C)(OC)C[C@@H](C)CN[C@H](C)[C@H]2NC(=O)O[C@@]21C (stereo partly shown) [Compound 116, 3-Descladinosyl-3-oxo-6-O-methyl-N9a-desmethyl-11,12-dideoxy-12,11-(oxycarbonylimino)-6′-(N-acetamidylamino) Azithromycin] | ≤ 4 | ≥ 32 | ≥ 32 | ≥ 32 | ≥ 32 | –
CC[C@H]1OC(=O)C(C)C(=O)[C@H](C)[C@@H](O[C@@H]2OC(CO)CC(N(C)C)C2O)[C@](C)(OC)C[C@@H](C)CN[C@H](C)[C@H]2NC(=O)O[C@@]21C (stereo partly shown) [Compound 57] | 8 to 32 (≈ 12.7 to 50.8 µM) | ≥ 32 | ≥ 32 | ≥ 32 | ≥ 32 | –
CC[C@H]1OC(=O)C(C)C(=O)[C@H](C)[C@@H](O[C@@H]2O[C@H]([C@@H](C)N(C)C)CC(N(C)C)[C@H]2O)[C@](C)(OC)C[C@@H](C)CN[C@H](C)[C@H]2NC(=O)O[C@@]21C (stereo partly drawn) [Compound 176, 3-Descladinosyl-3-oxo-6-O-methyl-N9a-desmethyl-11,12-dideoxy-12,11-(oxycarbonylimino)-6′-((R)-(dimethylamino)ethyl) Azithromycin] | ≥ 32 | ≥ 32 | ≥ 32 | ≥ 32 | ≥ 32 | –
CC[C@H]1OC(=O)C(C)C(=O)[C@H](C)[C@@H](OC2OC(CNCC(C)(C)O)CC(N(C)C)C2O)[C@](C)(OC)C[C@@H](C)CN[C@H](C)[C@H]2NC(=O)O[C@@]21C (stereo partly shown) [Compound 113, 3-Descladinosyl-3-oxo-6-O-methyl-N9a-desmethyl-11,12-dideoxy-12,11-(oxycarbonylimino)-6′-(2-methylpropan-2-ol-amino) Azithromycin] | 8 to 32 (≈ 11.4 to 45.7 µM) | ≥ 32 | ≥ 32 | ≥ 32 | ≥ 32 | –
CC[C@H]1OC(=O)C(C)C(=O)[C@H](C)[C@@H](OC2OC(CN3CCC(F)(F)CC3)CC(N(C)C)C2O)[C@](C)(OC)C[C@@H](C)CN[C@H](C)[C@H]2NC(=O)O[C@@]21C (stereo partly shown) [Compound 144, 3-Descladinosyl-3-oxo-6-O-methyl-N9a-desmethyl-11,12-dideoxy-12,11-(oxycarbonylimino)-6′-(4″,4″-difluoropiperidin-1″-yl) Azithromycin] | ≤ 4 | 8 to 32 (≈ 10.9 to 43.7 µM) | ≥ 32 | 8 to 32 (≈ 10.9 to 43.7 µM) | 8 to 32 (≈ 10.9 to 43.7 µM) | –
CC[C@H]1OC(=O)C(C)C(=O)[C@H](C)[C@@H](O[C@@H]2OC(CNc3ccccn3)CC(N(C)C)C2O)[C@](C)(OC)C[C@@H](C)CN[C@H](C)[C@H]2NC(=O)O[C@@]21C (stereo partly shown) [Compound 51] | ≤ 4 | 8 to 32 (≈ 11.3 to 45.3 µM) | ≥ 32 | ≥ 32 | ≥ 32 | –
CC[C@H]1OC(=O)C(C)C(=O)[C@H](C)[C@@H](OC2OC(CN3CCCCC3)CC(N(C)C)C2O)[C@](C)(OC)C[C@@H](C)CN[C@H](C)[C@H]2NC(=O)O[C@@]21C (stereo partly shown) [Compound 123, 3-Desdadinosyl-3-oxo-6-O-methyl-N9a-desmethyl-11,12-dideoxy-12,11-(oxycarbonylimino)-6′-(1-piperidinyl) Azithromycin] | ≤ 4 | 8 to 32 (≈ 11.5 to 45.9 µM) | ≥ 32 | ≥ 32 | ≥ 32 | –
CC[C@H]1OC(=O)[C@@]2(C)CCO[C@](C)(C[C@@H](C)CN[C@H](C)[C@H]3NC(=O)O[C@@]31C)[C@H](O[C@@H]1O[C@H](CO)C[C@H](N(C)C)[C@H]1O)[C@@H](C)C2=O [Compound 195] | ≥ 32 | ≥ 32 | ≥ 32 | ≥ 32 | ≥ 32 | –
CC[C@H]1OC(=O)[C@]2(C)CCO[C@](C)(C[C@@H](C)CN[C@H](C)[C@H]3NC(=O)O[C@@]31C)[C@H](O[C@@H]1O[C@H](CNC3CC3)C[C@H](N(C)C)[C@H]1O)[C@@H](C)C2=O [Compound 203] | – | – | ≥ 32 | – | ≥ 32 | –
CC[C@H]1OC(=O)[C@]2(C)CCOC(C)(C[C@@H](C)CN[C@H](C)[C@H]3NC(=O)O[C@@]31C)[C@H](O[C@@H]1O[C@H](CNC34CC(C3)C4)C[C@H](N(C)C)[C@H]1O)[C@@H](C)C2=O [Compound 205] | – | – | – | – | – | + (values of 32 mg/L or greater)
CC[C@H]1OC(=O)[C@@]2(C)CCOC(C)(C[C@@H](C)CN(CC(C)C)[C@H](C)[C@H]3NC(=O)O[C@@]31C)[C@H](O[C@@H]1OC(C)CC(N(C)C)C1O)[C@@H](C)C2=O (stereo partly shown) [Compound 222] | – | – | – | – | 8 to 32 (≈ 11.7 to 46.9 µM) | –
CCC1CO[C@@]2(C)C[C@@H](C)CN[C@H](C)[C@H]3NC(=O)O[C@]3(C)[C@@H](CC)OC(=O)[C@@]1(C)C(=O)[C@H](C)[C@H]2OC1OC(C)CC(N(C)C)C1O (stereo partly shown) [Compound 225] | – | – | – | – | ≥ 32 | –
CC[C@H]1OC(=O)C(C)C(=O)[C@H](C)[C@@H](OC2OC(CNCC3CC3)CC(N(C)C)C2O)[C@](C)(OC)C[C@@H](C)CN[C@H](C)[C@H]2NC(=O)O[C@@]21C (stereo partly shown) [Compound 119, 3-Descladinosyl-3-oxo-6-O-methyl-N9a-desmethyl-11,12-dideoxy-12,11-(oxycarbonylimino)-6′-(cyclopropylmethylamino) Azithromycin] | ≤ 4 | 8 to 32 (≈ 11.7 to 46.9 µM) | – | ≥ 32 | ≥ 32 | –
3-Descladinosyl-3-oxo-6-O-methyl-N9a-desmethyl-11,12-dideoxy-12,11-(oxycarbonylimino)-6,11-(Z-2-butenyl)-6′-cyclopropylamino azithromycin [Compound 230] | – | – | – | – | – | + (values of 32 mg/L or greater)
CC[C@H]1OC(=O)[C@]2(C)CCOC(C)(C[C@@H](C)CN[C@H](C)[C@H]3NC(=O)O[C@@]31C)[C@H](O[C@@H]1O[C@H](CNCC(F)(F)F)C[C@H](N(C)C)[C@H]1O)[C@@H](C)C2=O [Compound 207] | – | – | – | – | ≥ 32 | –
